Test results: patent publication US7335756B2, “Retinoic acid metabolizing cytochrome P450” (Cytochroma Inc., priority 2001, dated 2008)

Experiments:
P450RAI-3 [1] = molecular target: T1, P450RAI-3 (Homo sapiens, UniProt Q6V0L0, F447L); assay: [3H]-RA-metabolism inhibition in Sf9-Bac-P450RAI-3 insect microsomes; format: biochemical; conditions: 2 nM [3H]-RA, NADPH, 1 hour, read-out: ID50 (nM) Sf9-P450RAI-3
T1 sequence (Q6V0L0 1-522 F447L): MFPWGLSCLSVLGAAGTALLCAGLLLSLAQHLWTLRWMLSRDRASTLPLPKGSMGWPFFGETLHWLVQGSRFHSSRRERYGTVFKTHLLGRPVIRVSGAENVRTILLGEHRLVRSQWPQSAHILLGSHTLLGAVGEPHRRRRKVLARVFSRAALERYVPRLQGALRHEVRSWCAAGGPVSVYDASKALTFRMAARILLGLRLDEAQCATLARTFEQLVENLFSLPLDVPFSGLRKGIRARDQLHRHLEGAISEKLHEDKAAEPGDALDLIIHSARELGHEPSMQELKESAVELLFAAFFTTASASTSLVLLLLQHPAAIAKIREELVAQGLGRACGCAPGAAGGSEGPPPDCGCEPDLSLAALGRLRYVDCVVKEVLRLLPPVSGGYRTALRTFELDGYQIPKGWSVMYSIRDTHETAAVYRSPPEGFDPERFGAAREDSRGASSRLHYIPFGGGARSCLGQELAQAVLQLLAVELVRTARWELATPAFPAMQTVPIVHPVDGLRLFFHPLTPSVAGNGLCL
Description: Microsomes from P450RAI-3 and CYP26B infected Sf-9 cells were made as follows: exponentially growing cells were harvested, washed with ice-cold PBS, counted then homogenized and sonicated in lysis buffer containing protease inhibitors cocktail (10^8 cells par 5 ml lyses buffer). Since P450RAI-3 is a microsomal cytochrome, it preferably uses NADPH cytochromic P450 reductase and a flavoprotein for activity. The microsomes were isolated by differential centrifugations (10 min at 800×g, than 10 min at 10,000×g and finally the postmitichondirial supernatant was centrifuged at 100,000×g for 60 min using ultracentrifuge (Beckman). The microsomal pellet was isolated and homogenized gently in the storage buffer containing protease inhibitors cocktail. Protein concentration in the microsomal preparation was determined using a […] reaction assay kit with BSA as standards (Pierce). The absorbance at 562 nm of standards (BSA at 1, 0.5, 0.25, 0.125, and 0.0625 mg/ml) and 3 dilutions of microsomes samples (⅕, 1/10 and 1/20) was determined using an automatic microplate reader (μQuant, BioTek instruments Inc.). The protein concentration directly calculated by the software (KCJunior). […] Microsomes were assessed for P450 content by carbon monoxide assay and total P450 content was determined at 3 nmol/ml. […]

CYP26-B [2] = molecular target: T2, CYP26-B (Homo sapiens, UniProt Q9NR63); assay: [3H]-RA-metabolism inhibition, transient Cos-CYP26-B cell-based assay; conditions: at lower concentrations
T2 sequence (Q9NR63 1-512): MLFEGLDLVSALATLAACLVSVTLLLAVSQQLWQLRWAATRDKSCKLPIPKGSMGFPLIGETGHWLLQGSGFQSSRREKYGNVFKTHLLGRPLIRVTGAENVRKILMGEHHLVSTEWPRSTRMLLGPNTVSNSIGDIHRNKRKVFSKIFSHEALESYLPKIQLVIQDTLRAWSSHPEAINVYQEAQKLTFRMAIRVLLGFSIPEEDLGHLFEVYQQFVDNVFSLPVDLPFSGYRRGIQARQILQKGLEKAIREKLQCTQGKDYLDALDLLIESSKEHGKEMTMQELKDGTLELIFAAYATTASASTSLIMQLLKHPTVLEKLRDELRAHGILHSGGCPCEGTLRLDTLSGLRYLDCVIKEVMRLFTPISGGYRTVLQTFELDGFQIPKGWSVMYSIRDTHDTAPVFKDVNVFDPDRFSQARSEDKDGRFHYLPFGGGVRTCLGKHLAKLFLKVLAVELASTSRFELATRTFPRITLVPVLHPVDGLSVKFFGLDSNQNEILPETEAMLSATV

P450RAI-3 [3] = molecular target: T1, P450RAI-3; assay: LC/MS analysis of ATRA and 9-cis-RA metabolism in Hela-P450RAI-3 stable cells; conditions: 5 hours
Description: After 5 hours incubation at 37° C., cells were acidified with acetic acid and total retinoids were extracted using Ethyl acetate method. The organic upper layer was pooled and evaporated in speed-vacuum, and dried residues were dissolved in HPLC mobile solvent and analyzed in LC/MS.
The HPLC system consisted of a waters alliance 2690 separations module. Chromatography was obtained on an Eclipse X DB-C18 reverse phase column (5 um, 2.1×150 mm from HP). A gradient elution program was used using acetonitrile, water and 10% acetic acid. The flow was held at 0.2 ml/min.
Mass Spectrometry condition used for this work consisted of a Micro-mass Quatro Ultima Tandem triple quadruple mass spectrometer equipped with electrospray interface (ESI) and operated in a negative mode.

CYP26-B [4] = molecular target: T2, CYP26-B; assay: RA-metabolism cell based assay in CYP26-B-infected Sf9 cells; conditions: 2 nM [3H]-RA
Description: Recombinant baculovirus expressing either P450RAI-3 or CYP26B (Bac-P450RAI-3 or Bac-CYP26B or CYP26B) was prepared and titrated by end-point dilution and infection of Sf9 cells in 96-well format. Baculovirus expressing vector was co-transfected into Sf9-insect cells. Infected cells were assessed for RA-metabolism after 72 hours post transfection using RA-metabolism cell based assay as follows: the RA-metabolism reaction was started by adding 50 μl of [^3H]-RA solution (20000 cpm, 2 nM final concentration) using an automatic repeating-pipette.
Cells were incubated for 3 hours. The reaction was stopped by adding 5 μl of 10% acetic acid. Organic and aqueous soluble radio-labelled metabolites were extracted using the Bligh-Dyer procedure.

P450RAI-3 [5] = molecular target: T1, P450RAI-3; assay: [3H]-RA-metabolism inhibition in mammalian microsomes from transient P450RAI-3-transfected Cos cells; format: biochemical; parameters: expressed in transfected cells; host or cells: COS-1 (transient, pcDNA-P450RAI-3, Fugene); conditions: read-out: ID50 (nM) P450RAI-3
Description: RA-metabolism activity was assessed using RA-metabolism microsomes-based assay and Bligh Dyer extraction as follows: Using an automatic repeating-pipette, gently thawed and homogenized microsomes were plated in a 48-well plate in final volume of 150 μl of storage buffer containing 0.5 mg/ml BSA. At indicated concentration 2 μl of compound solution was added to the assay and 2 μl of DMSO was added to MS control (quadruplet) and No-MS control. 50 μl of [^3H]-RA solution (30,000 cpm, 2 nM final concentration) was added. The microsomes assay with the compounds and the [^3H]-ATRA were incubated first for 10 min at 37° C., and then the reaction started by adding 20 μl of NADPH solution (or 1 mM final). After 1-hour incubation the reaction was stopped by adding 5 μl of 10% acetic acid. Organic and aqueous soluble radio-labelled metabolites were extracted using the Bligh-Dyer procedure. Saturated activity obtained in presence of NADPH at 5 μg of microsomes, FIG. 14.
Microsomes prepared from either stable Hela-CYP26-B or transient P450RAI-3-transfected Cos cells were used.

Q: Which IC50 (P450RAI-3 [1]) does the source give for `CC1=C(/C=C/C(C)=C/C=C/C(C)=C/C(=O)O)C(C)(C)CCC1` [ATRA, all-trans-retinoic-acid] here?
A: 20 nM

Q: What about the “competition / inhibition of CYP26-B” value (CYP26-B [2]) of the same compound?
A: competed

Q: What about the “metabolites formed by P450RAI-3” value (P450RAI-3 [3]) of the same compound?
A: hydroxy and oxo-metabolites

Q: And the “metabolism by CYP26-B-infected Sf9-cells” value (CYP26-B [4])?
A: metabolized ATRA and converted it to water-soluble metabolites

Q: What about the IC50 (P450RAI-3 [5]) of the same compound?
A: 20 nM
